Assay results from publication PMC6506615, “Internalization of Erythrocyte Acylpeptide Hydrolase Is Required for Asexual Replication of Plasmodium falciparum” (mSphere, 2019).

Biological target: T1, acylpeptide hydrolase (APEH) (Homo sapiens, UniProt P13798)
T1 sequence (P13798 1-732): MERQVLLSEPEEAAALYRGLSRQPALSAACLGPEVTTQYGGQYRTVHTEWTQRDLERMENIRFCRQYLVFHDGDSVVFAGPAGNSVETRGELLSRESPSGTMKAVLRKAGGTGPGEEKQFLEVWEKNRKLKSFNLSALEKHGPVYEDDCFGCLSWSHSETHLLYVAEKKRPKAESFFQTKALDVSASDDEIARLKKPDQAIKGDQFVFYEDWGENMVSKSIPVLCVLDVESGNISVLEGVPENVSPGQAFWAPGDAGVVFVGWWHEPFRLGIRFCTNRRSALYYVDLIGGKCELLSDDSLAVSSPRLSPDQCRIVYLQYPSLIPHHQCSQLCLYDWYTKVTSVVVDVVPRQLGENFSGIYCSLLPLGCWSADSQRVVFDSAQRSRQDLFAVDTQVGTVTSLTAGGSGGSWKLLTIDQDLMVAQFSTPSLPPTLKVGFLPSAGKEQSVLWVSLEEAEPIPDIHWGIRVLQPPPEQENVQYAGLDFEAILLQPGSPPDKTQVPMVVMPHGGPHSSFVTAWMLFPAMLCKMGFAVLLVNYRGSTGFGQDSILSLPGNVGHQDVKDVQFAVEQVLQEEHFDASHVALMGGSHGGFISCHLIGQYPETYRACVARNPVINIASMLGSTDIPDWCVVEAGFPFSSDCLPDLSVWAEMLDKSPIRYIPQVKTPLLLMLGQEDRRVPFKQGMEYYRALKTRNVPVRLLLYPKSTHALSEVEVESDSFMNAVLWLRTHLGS
Test: competitive ABPP with TAMRA-FP in human erythrocyte lysate and saponin-isolated parasite lysate; also intact erythrocytes
Assay type: biochemical

## CC(C)CC(O)(CC(C)C)c1cnn(C(=O)N2CCCC2)n1 [AA74-1]
  IC50: 7.4 ± 2.4 nM
